Values joined by “and” are separate entries in the source; they are usually repeats but may differ in a detail not shown here. Equal entries are not always repeated. “Also recorded” adds a separate entry of the source. Where two headings read alike, the source gives them in different places.
Legend:
β-estradiol UGT activity [1] = assay: β-estradiol UGT activity in intestinal microsomes from PCN and TCDD treated Tg-UGT1c mice; assay type: in vivo, mouse; settings: for Induction of β-estradiol glucuronidation: large intestine microsomes, Tg-UGT1c mice
Protocol: (§1) Microsomal Protein Isolation from Transgenic Mouse Tissues.
(§2) Reactions were terminated by the addition of 100 μl of methanol followed by centrifugation at top speed for 15 minutes. A 100 μl sample of the quenched reaction was spotted onto pre-adsorbent area of the TLC plate and develop in n-butanol/acetone/acetic acid/water (35:35:10:20) to achieve separation. ^14C-Labeled glucuronides were visualized with a STORM 820™ PhosphorImager (Molecular Dynamics/Amersham Biosciences). Silica gel in regions corresponding to the glucuronide bands were then scraped from the TLC plates, radioactivity measured by liquid scintillation counting, and specific catalytic activities were calculated in picomoles of glucuronide formed/mg of protein/min.
(§3) Values are the mean±S.E.M from triplicate experiments.

human UGT1A1 = settings: for UGT1A1 protein induction: small and large intestinal microsomes, TCDD 16 μg/kg or PCN
Source text: (§4) Microsomal Protein Isolation from Transgenic Mouse Tissues. Using three animals per group, the liver, small and large intestinal tissues were collected from Tg-UGT1 and wild type mice. For the small and large intestine, the tissue was dissected open lengthwise and the luminal surface gently rinsed in 1.15% KCl before freezing on dry ice. Tissue samples from each treatment group were combined and frozen in liquid nitrogen in a porcelain mortar and pulverized under liquid nitrogen. A sample of the pulverized tissue was added to 5 volumes of 1.15% ice cold KCl and the tissue homogenized using a motorized glass-teflon homogenizer. The tissue homogenate was first centrifuged at 2,000×g for 10 min at 4° C. and the supernatant was collected. The supernatant was then centrifuged at 9,000×g for 10 min at 4° C. and this resulting supernatant centrifuged at 100,000×g for 60 min at 4° C. The pellet was resuspended in buffer (50 mM Tris-HCl pH 7.4, 10 mM MgCl2, 1 mM PMSF) and the protein concentration determined by the Bradford method.
(§5) Immunoblot Analysis. All Western blots were performed using NuPAGE Bis-Tris polyacrylamide gels as outlined by the supplier (Invitrogen, Carlsbad, Calif.). Protein was heated at 70° C. for 10 min in loading buffer and resolved in 4-12% Bis-Tris gels under denaturing conditions (50 mM MOPS, 50 mM Tris-base, pH 7.7, 0.1% SDS, 1 mM EDTA) prior to transferring the proteins to polyvinylidene difluoride membrane using a semidry transfer system (Norvex, England). The membrane was blocked with 5% nonfat dry milk in 10 mM Tris-HCl, pH7.4 containing 0.15 M NaCl and 0.05% Tween 20 (Tris-buffered saline) for 1 h at room temperature, followed by incubation with primary antibodies (mouse anti-human UGT1A1, UGT1A4 or UGT1A6) in Tris-buffered saline overnight at 4° C. Membranes were washed and exposed to horseradish peroxidase-conjugated secondary antibodies for 1 h at room temperature. Each membrane was again washed and the conjugated horseradish peroxidase was detected using the ECL plus Western blotting detection system (Amersham) and the proteins detected following exposure to X-ray film.
(§6) For both TCDD and PCN, the administration was by the intraperitoneal route, and each mouse was treated every 24 hours over a three day period. Tissues from three mice were then pooled and pulverized under liquid nitrogen, and samples used for microsomal preparation as well as for the isolation of total RNA.
(§7) Three Tg-UGT^1c or wild type (WT) mice were treated by intraperitoneal injection every 24 hours with either DMSO, TCDD (16 μg/kg) or PCN (10 mg/kg) for 3 days. After 72 hours, the small intestines from each treatment group were combined and the large intestines from each treatment group were combined and the tissues pulverized under liquid nitrogen. A sample of each tissue was then used to prepare microsomes or to isolate total RNA. FIG. 4A: Western blot analysis of small and large intestinal microsomal protein using UGT1A1-, UGT1A4- or UGT1A6 specific antibodies. Included as control is a sample of each protein generated from the expression of cDNAs in stably transfected HEK293 cells. FIG. 4B: RNA prepared from the same samples of tissue were used in RT-PCR studies and the isoform specific products identified in ethidium bromide stained agarose gels.
(§8) Induction of the UGT1 locus in liver by PCN and TCDD. […] Wild type and Tg-UGT^1c mice were treated every 24 hours with TCDD (16 μg/kg) or PCN (10 mg/kg) by intraperitoneal injection for 3 days, and the livers from three animals per group combined and used to prepare microsomes or to isolate total RNA.

human UGT1A4 = settings: for UGT1A4 protein induction: small and large intestine
Source text: as §4, §5, §6, §7, §8

human UGT1A6 = settings: for UGT1A6 protein regulation: small and large intestine
Source text: as §4, §5, §6, §7, §8

[2] = system: UGT1A gene transcripts (human UGT1 locus); assay: Isoform-specific RT-PCR of UGT1A gene transcripts in tissues of treated Tg-UGT1c mice; assay type: in vivo, mouse; settings: for UGT1A1 RNA induction / UGT1A4 RNA / UGT1A6 RNA induction / UGT1A gene transcript induction: RT-PCR; for UGT1A gene transcript induction: small and large intestine, i.p. 3 days
Protocol: Analysis of UGT1 gene expression patterns by reverse transcription-PCR: For RNA isolation from transgenic and wild type (WT) mouse tissues, the tissues from three animals were combined as described in the methods that outline the preparation of microsomal proteins. After pulverizing in liquid nitrogen, approximately 100 mg of tissue was homogenized in 1 ml of TRIzol™ solution, and the RNA extracted following the manufacturer's instructions. For each reverse transcription reaction, 2 μg of total RNA was denatured by heating and cDNA synthesized in 20 μl using the Omniscript RT™ kit (Qiagen) according to the manufacturer's instructions. From this reaction, 2 μl of the cDNA reaction was employed in each PCR reaction. Each PCR reaction contained 0.2 μM of mouse β-actin primers, 0.4 μM of each of the UGT1A specific oligonucleotide primer pair (11;15;50), and 15 μl HOTSTART MASTERMIX™ (Qiagen) in a 30 μl reaction. For UGT1A1, UGT1A3, UGT1A4, UGT1A5, UGT1A6, UGT1A7, UGT1A9 and UGT1A10 the polymerase was activated at 95° C. for 15 minutes followed by 30 cycles of 95° C. for 30 sec, 63° C. for 30 sec, and 72° C. for 45 sec, and a final extension at 72° C. for seven minutes. For UGT1A8 PCR amplification, the polymerase was activated at 95° C. for 15 min followed by 30 cycles of 95° C. for 30 sec, 58° C. for 30 sec, and 72° C. for 45 sec, and a final extension at 72° C. for seven minutes. Analysis of expressed RNA included an antisense oligonucleotide specific for the common region that encoded exon 2, while all of the sense primers encoded a highly specific segment of each exon 1 sequence that allowed for the unique identification of each UGT1A RNA. PCR reactions were carried out in a PerkinElmer Life Sciences GENEAMP™ DNA thermocycler PCR system. Ten microliters of each PCR product was resolved on a 1.5% agarose gel containing 1 μg/ml ethidium bromide and photographed using Polaroid 665 positive/negative film (Polaroid, Cambridge, Mass.).
as §6, §7
as §8, with “RNA. FIG. 6A: Samples of liver microsomal protein (10 μg) was separated by SDS-polyacrylamide gel electrophoresis, and immunoblot analysis performed using UGT1A1-, UGT1A4 or UGT1A6-antibodies. FIG. 6B: Total liver RNA (4 μg) was used in reverse transcription reactions followed by PCR analysis using isozyme-specific oligonucleotides.” for “RNA.”

β-estradiol UGT activity [3] = assay: β-estradiol UGT activity in intestinal microsomes from PCN treated wild type mice; assay type: in vivo, mouse; settings: WT mice
Protocol: as §1, §2, §3

mouse Cyp3a11 = assay: Cyp3a11 RT-PCR in primary hepatocytes from Tg-UGT1c mice; settings: primary hepatocytes treated with PCN
UGT1A1 = system: UGT1A1
Protocol: as §5

mouse Cyp1a1 = assay: Cyp1a1 Western blot in primary hepatocytes from Tg-UGT1c mice; assay type: cell-based
Source text: Isolation and treatment of mouse transgenic primary hepatocytes. […] Mice were anesthetized by isoflurane inhalation.
Control hepatocyte cultures contained only DMSO (D).

[4] = system: UGT1A gene transcripts (human UGT1 locus); assay: Isoform-specific RT-PCR of UGT1A gene transcripts in tissues of treated Tg-UGT1c mice; assay type: in vivo, mouse; settings: liver and small intestine, UGT1+/- mice treated with TCDD
[5] = Tg-UGT1c mice, i.p. every 24 h for 3 days
[6] = liver microsomes, Tg-UGT1c mice, i.p. every 24 h for 3 days

Compound	Induction of β-estradiol glucuronidation (β-estradiol UGT activity [1])	UGT1A1 protein induction (human UGT1A1; [5])	UGT1A4 protein induction (human UGT1A4; [5])	UGT1A6 protein regulation (human UGT1A6; [5])	UGT1A1 RNA induction ([2]; liver, Tg-UGT1c mice)	UGT1A4 RNA ([2]; liver, Tg-UGT1c mice)	UGT1A6 RNA induction ([2]; liver, Tg-UGT1c mice)	Expression of UGT1A1, UGT1A3, UGT1A4, UGT1A6 and UGT1A9 gene transcripts ([2]; liver, Tg-UGT1c mice)	UGT1A gene transcript induction ([2]; Tg-UGT1c mice)	further results
CC(=O)[C@H]1[C@H](C#N)C[C@H]2[C@@H]3CC=C4C[C@@H](O)CC[C@]4(C)[C@H]3CC[C@@]21C [PCN, Pregnenolone-16α-carbonitrile]	induced β-estradiol glucuronidation significantly	inducible	inducible in small and large intestine	predominantly regulated only in large intestine	significant induction	increase	induced	induce expression of each of these genes	induction of all of the UGT1A gene transcripts	β-estradiol glucuronidation activity, induced level over induced level in WT mice (β-estradiol UGT activity [1]; small intestine microsomes, PCN treated Tg-UGT1c mice vs PCN treated WT mice): ~10 fold; Microsomal UGT1A1 protein induction (human UGT1A1; mouse, in vivo, ip): induction; Microsomal UGT1A4 protein induction (human UGT1A4; mouse, in vivo, ip): induction; Microsomal UGT1A6 protein induction (human UGT1A6; mouse, in vivo, ip): induction; Induction of β-estradiol glucuronidation (β-estradiol UGT activity [3]; large intestine microsomes): induced β-estradiol glucuronidation significantly; Induction of UGT activity (β-estradiol) (β-estradiol UGT activity [3]; small intestine microsomes): induced a minimal amount of UGT activity; Cyp3a11 mRNA induction (mouse Cyp3a11): induction; UGT1A1 induction, hepatocytes cultured in dexamethasone (UGT1A1): significant induction
Clc1cc2c(cc1Cl)Oc1cc(Cl)c(Cl)cc1O2 [TCDD, 2,3,7,8-Tetrachlorodibenzo-p-dioxin]	most significant induction	inducible	inducible in small and large intestine	predominantly regulated only in large intestine	significant induction	increase	induced	induce expression of each of these genes	induction of all of the UGT1A gene transcripts	Microsomal UGT1A1 protein induction (human UGT1A1; [6]): induction; Microsomal UGT1A4 protein induction (human UGT1A4; [6]): induction; Microsomal UGT1A6 protein induction (human UGT1A6; [6]): induction; UGT1A10 induction ([2]; liver, Tg-UGT1c mice): induce; also recorded: significantly induced; Regulation of UGT1A5, UGT1A7 and UGT1A8 ([2]; liver, Tg-UGT1 mice): not regulated; Mouse Cyp1a1 induction (mouse Cyp1a1; TCDD 72 hours): induction; Synergistic induction of Cyp1a1 in presence of glucocorticoids (mouse Cyp1a1; TCDD with 0.1 μM dexamethasone): did not observe a synergistic induction; Expression of 1A1 and 1A6 [4]: elevated expression; UGT1A1 induction in presence of dexamethasone over the levels obtained only with TCDD treatment (UGT1A1; primary hepatocytes cultured in 0.1 μM dexamethasone and treated with TCDD): 10 fold and > 10 fold; UGT1A1 induction (UGT1A1; primary hepatocytes, compound alone, TCDD 10 nM 72 hours, PCN 10 μM, dexamethasone 0.1 μM): induction

From patent publication US20080313748A1, “Transgenic Non-Human Animals Comprising the Human Udp-Glucuronosyltransferase 1A (Ugt1a) Gene Locus and Methods of Using Them” (priority 2004, published 2008)
